Assay results: patent US11072608B2, “Pesticidally active heterocyclic derivatives with sulphur containing substituents” (SYNGENTA PARTICIPATIONS AG, priority 2014, dated 2021)

Columns and labels:
[1] = test system: Thrips tabaci (onion thrips); assay: Example B11: activity against Thrips tabaci, sunflower leaf disc spray; type: in vivo; conditions: foliar, 144 h, application rate of 200 ppm, sunflower leaf discs, mixed ages, 6 days after infestation
Protocol: Example B11: Activity Against Thrips tabaci (Onion Thrips)
(§1) Sunflower leaf discs were placed on agar in 24-well microtiter plates and sprayed with aqueous test solutions prepared from 10,000 ppm DMSO stock solutions. After drying the leaf discs were infested with a Thrips population of mixed ages. The samples were assessed for mortality 6 days after infestation.

[2] = test system: Spodoptera littoralis (Egyptian cotton leaf worm); assay: Example B2: activity against Spodoptera littoralis, systemic via lettuce on agar; type: in vivo; conditions: 144 h, application rate of 12.5 ppm, Spodoptera eggs, 6 days after infestation, read-out: control in at least one of the three categories (mortality, anti-feedancy or growth inhibition)
Source text: Example B2: Activity Against Spodoptera Littoralis (Egyptian Cotton Leaf Worm)
Test compounds were applied by pipette from 10,000 ppm DMSO stock solutions into 24-well plates and mixed with agar. Lettuce seeds were placed on the agar and the multi well plate was closed by another plate which contains also agar. After 7 days the roots have absorbed the compound and the lettuce has grown into the lid plate. The lettuce leafs were now cut off into the lid plate. Spodoptera eggs were pipetted through a plastic stencil on a humid gel blotting paper and the plate closed with it. The samples were assessed for mortality, anti-feedant effect and growth inhibition in comparison to untreated samples 6 days after infestation. The following compound gave an effect of at least 80% control in at least one of the three categories (mortality, anti-feedancy or growth inhibition) at an application rate of 12.5 ppm: P1, P4, P9, P12 and P13.

[3] = test system: Myzus persicae (green peach aphid); assay: Example B5: activity against Myzus persicae, sunflower leaf disc spray; type: in vivo; conditions: foliar, 144 h, application rate of 200 ppm, sunflower leaf discs, mixed ages, 6 days after infestation
Protocol: Example B5: Activity Against Myzus persicae (Green Peach Aphid)
Sunflower leaf discs were placed on agar in a 24-well microtiter plate and sprayed with aqueous test solutions prepared from 10,000 ppm DMSO stock solutions. After drying, the leaf discs were infested with an aphid population of mixed ages. The samples were assessed for mortality 6 days after infestation.

[4] = test system: Bemisia tabaci (cotton white fly); assay: Example B7: activity against Bemisia tabaci, cotton leaf disc spray; type: in vivo; conditions: foliar, 144 h, application rate of 200 ppm, cotton leaf discs, adult white flies, 6 days after incubation
Protocol: Example B7: Activity Against Bemisia tabaci (Cotton White Fly)
Cotton leaf discs were placed on agar in 24-well microtiter plates and sprayed with aqueous test solutions prepared from 10,000 ppm DMSO stock solutions. After drying the leaf discs were infested with adult white flies. The samples were checked for mortality 6 days after incubation.

[5] = test system: Myzus persicae (green peach aphid); assay: Example B9: activity against Myzus persicae, roots of pea seedlings in test solution; type: in vivo; conditions: 144 h, test rate of 24 ppm, 6 days
Protocol: Example B9: Activity Against Myzus persicae (Green Peach Aphid)
Roots of pea seedlings infested with an aphid population of mixed ages were placed directly into aqueous test solutions prepared from 10,000 DMSO stock solutions. The samples were assessed for mortality 6 days after placing seedlings into test solutions.

[6] = test system: Plutella xylostella (diamond back moth); assay: Example B3: activity against Plutella xylostella, artificial diet; type: in vivo; conditions: 120 h, application rate of 200 ppm, L2 larvae, 5 days after infestation, read-out: effect in at least one of the two categories (mortality or growth inhibition)
Protocol: Example B3: Activity Against Plutella xylostella (Diamond Back Moth)
24-well microtiter plates with artificial diet were treated with aqueous test solutions prepared from 10,000 ppm DMSO stock solutions by pipetting. After drying, the plates were infested with L2 larvae (10 to 15 per well). The samples were assessed for mortality and growth inhibition in comparison to untreated samples 5 days after infestation. The following compound gave an effect of at least 80% in at least one of the two categories (mortality or growth inhibition) at an application rate of 200 ppm: P1, P4, P5, P6, P8, P9, P10, P11, P12 and P13.

[7] = test system: Frankliniella occidentalis (western flower thrips); assay: Example B10: activity against Frankliniella occidentalis, sunflower leaf disc spray; type: in vivo; conditions: foliar, 168 h, application rate of 200 ppm, sunflower leaf discs, mixed ages, 7 days after infestation
Protocol: Example B10: Activity Against Frankliniella occidentalis (Western Flower Thrips)
as §1, with “10,000” for “10,000 ppm”, “Frankliniella” for “Thrips”, “7” for “6”

[8] = test system: Diabrotica balteata (corn root worm); assay: Example B4: activity against Diabrotica balteata, maize sprouts spray; type: in vivo; conditions: 96 h, application rate of 200 ppm, L2 larvae, 4 days after infestation, read-out: effect in at least one of the two categories (mortality or growth inhibition)
Protocol: Example B4: Activity Against Diabrotica balteata (Corn Root Worm)
Maize sprouts, placed on an agar layer in 24-well microtiter plates were treated with aqueous test solutions prepared from 10,000 ppm DMSO stock solutions by spraying. After drying, the plates were infested with L2 larvae (6 to 10 per well). The samples were assessed for mortality and growth inhibition in comparison to untreated samples 4 days after infestation. The following compounds gave an effect of at least 80% in at least one of the two categories (mortality or growth inhibition) at an application rate of 200 ppm: P1, P4, P5, P6, P8, P9, P10, P11, P12 and P13.

[9] = test system: Spodoptera littoralis (Egyptian cotton leaf worm); assay: Example B1: activity against Spodoptera littoralis, cotton leaf disc spray; type: in vivo; conditions: foliar, 72 h, application rate of 200 ppm, cotton leaf discs, L1 larvae, 3 days after infestation, read-out: control in at least one of the three categories (mortality, anti-feedancy or growth inhibition)
Protocol: Example B1: Activity Against Spodoptera littoralis (Egyptian Cotton Leaf Worm)
Cotton leaf discs were placed on agar in 24-well microtiter plates and sprayed with aqueous test solutions prepared from 10,000 ppm DMSO stock solutions. After drying the leaf discs were infested with five L1 larvae. The samples were assessed for mortality, anti-feedant effect, and growth inhibition in comparison to untreated samples 3 days after infestation. Control of Spodoptera littoralis by a test sample is when at least one of mortality, anti-feedant effect, and growth inhibition is higher than the untreated sample. The following compound gave an effect of at least 80% control in at least one of the three categories (mortality, anti-feedancy or growth inhibition) at an application rate of 200 ppm: P1, P4, P5, P8, P9, P10, P12 and P13.

[10] = test system: Euschistus heros (neotropical brown stink bug); assay: Example B8: activity against Euschistus heros, soybean leaf spray; type: in vivo; conditions: 120 h, application rate of 200 ppm, N-2 nymphs, 5 days after infestation
Protocol: Example B8: Activity Against Euschistus heros (Neotropical Brown Stink Bug)
Soybean leaf on agar in 24-well microtiter plates were sprayed with aqueous test solutions prepared from 10,000 ppm DMSO stock solutions. After drying the leaf were infested with N-2 nymphs. The samples were assessed for mortality 5 days after infestation.

melting point | SMILES | mortality at 200 ppm [1] | control at 12.5 ppm [2] | mortality at 200 ppm [3] | mortality at 200 ppm [4] | mortality at 24 ppm [5] | percent effect (mortality or growth inhibition) at 200 ppm [6] | mortality at 200 ppm [7] | percent effect (mortality or growth inhibition) at 200 ppm [8] | percent control (mortality, anti-feedancy or growth inhibition) at 200 ppm [9] | mortality at 200 ppm [10]
– | CCS(=O)(=O)c1cc(C2(C#N)CC2)cnc1-c1nc2cc(C(F)(F)F)cnc2n1C [Compound P9, 1-[5-ethylsulfonyl-6-[3-methyl-6-(trifluoromethyl)imidazo[4,5-b]pyridin-2-yl]-3-pyridyl]cyclopropanecarbonitrile] | ≥ 80% | ≥ 80% | ≥ 80% | ≥ 80% | ≥ 80% | ≥ 80% | ≥ 80% | ≥ 80% | ≥ 80% | ≥ 80%
130 to 132 °C | CCSc1cc(C2CCCC2)cnc1-c1nc2cc(C(F)(F)F)cnc2n1C [Compound P2, 2-(5-cyclopentyl-3-ethylsulfanyl-2-pyridyl)-3-methyl-6-(trifluoromethyl) imidazo[4,5-b]pyridine] | – | – | – | – | – | – | – | – | – | –
– | CCS(=O)(=O)c1cc(C2CC2)cnc1-c1nc2cc(C(F)(F)F)cnc2n1C [Compound P4, 2-(5-cyclopropyl-3-ethylsulfonyl-2-pyridyl)-3-methyl-6-(trifluoromethyl) imidazo[4,5-b]pyridine] | – | ≥ 80% | ≥ 80% | ≥ 80% | – | ≥ 80% | ≥ 80% | ≥ 80% | ≥ 80% | ≥ 80%
148 to 150 °C | CCSc1cc(C2CCCCC2)cnc1-c1nc2cc(C(F)(F)F)cnc2n1C [Compound P3, 2-(5-cyclohexyl-3-ethylsulfanyl-2-pyridyl)-3-methyl-6-(trifluoromethyl) imidazo[4,5-b]pyridine] | – | – | – | – | – | – | – | – | – | –
– | CCS(=O)(=O)c1cc(C2(C#N)CCC2)cnc1-c1nc2cc(C(F)(F)F)cnc2n1C [Compound P10] | – | – | ≥ 80% | ≥ 80% | – | ≥ 80% | – | ≥ 80% | ≥ 80% | ≥ 80%
136 to 138 °C | CCSc1cc(C2CCC2)cnc1-c1nc2cc(C(F)(F)F)cnc2n1C [Compound P7] | – | – | – | – | – | – | – | – | – | –
– | CCS(=O)(=O)c1cc(C2(C(N)=O)CC2)cnc1-c1nc2cc(C(F)(F)F)cnc2n1C [Compound P11, 1-[5-ethylsulfonyl-6-[3-methyl-6-(trifluoromethyl)imidazo[4,5-b]pyridin-2-yl]-3-pyridyl]cyclopropanecarboxamide] | – | – | ≥ 80% | ≥ 80% | ≥ 80% | ≥ 80% | ≥ 80% | ≥ 80% | – | ≥ 80%
– | CCS(=O)(=O)c1cc(C2CCCCC2)cnc1-c1nc2cc(C(F)(F)F)cnc2n1C [Compound P6] | – | – | ≥ 80% | ≥ 80% | – | ≥ 80% | – | ≥ 80% | – | ≥ 80%
– | CCS(=O)(=O)c1cc(C2CCCC2)cnc1-c1nc2cc(C(F)(F)F)cnc2n1C [Compound P5] | – | – | ≥ 80% | – | – | ≥ 80% | – | ≥ 80% | ≥ 80% | ≥ 80%
– | CCS(=O)(=O)c1cc(C2CCC2)cnc1-c1nc2cc(C(F)(F)F)cnc2n1C [Compound P8] | – | – | ≥ 80% | ≥ 80% | – | ≥ 80% | – | ≥ 80% | ≥ 80% | ≥ 80%
163 to 165 °C | CCS(=O)(=O)c1ccc(C2CC2)nc1-c1nc2cc(C(F)(F)F)cnc2n1C [Compound P14, 2-(6-cyclopropyl-3-ethylsulfonyl-2-pyridyl)-3-methyl-6-(trifluoromethyl)imidazo[4,5-b]pyridine] | – | – | – | – | – | – | – | – | – | –
– | CCS(=O)(=O)c1cc(C2(C#N)CC2)cnc1-c1nc2cc(SC(F)(F)F)cnc2n1C [Compound P13, 1-[5-ethylsulfonyl-6-[3-methyl-6-(trifluoro-methylsulfanyl)imidazo[4,5-b]pyridin-2-yl]-3-pyridyl]cyclopropanecarbonitrile] | ≥ 80% | ≥ 80% | ≥ 80% | ≥ 80% | – | ≥ 80% | ≥ 80% | ≥ 80% | ≥ 80% | ≥ 80%
– | CCS(=O)(=O)c1cc(C2(C(=O)O)CC2)cnc1-c1nc2cc(C(F)(F)F)cnc2n1C [Compound P12, 1-[5-ethylsulfonyl-6-[3-methyl-6-(trifluoromethyl)imidazo[4,5-b]pyridin-2-yl]-3-pyridyl]cyclopropanecarboxylic acid] | – | ≥ 80% | ≥ 80% | ≥ 80% | – | ≥ 80% | – | ≥ 80% | ≥ 80% | ≥ 80%
